We go through one compound from patent US20100016547A1, “Glycosilated Peptide and Medicine Comprising It as an Effective Ingredient” (priority 2005, published 2010).

In test [1] the target is T1, GLP-1 receptor (Homo sapiens, UniProt P43220).
Procedure: After being incubated at room temperature for 2 hours, the solution was filtered through a unifilter 96GF/C plate (Perkin-Elmer) pretreated with 1% polyethylenimine containing 0.5% BSA, washed with 25 mM HEPES buffer solution (pH 7.4) containing 0.5% BSA, and radioactivity remained on the filter was measured by a gamma counter (Top Counter; Perkin-Elmer).
The target in test [2] is T1, GLP-1 receptor. Description: Assay for production of cAMP.
Procedure: Assay for Production of cAMP
After stirring at room temperature for an hour, the cells were lysed with Triton X-100 (final concentration: 1%).
Quantity of cAMP was determined using cAMP Femtomolar Kit (CIS Bio International). The reaction solution (1 μL) was moved to a new 384-well plate and diluted by adding 9 μL of dilution buffer. Next, each 5 μL of cAMP-XL665 solution and anti-cAMP cryptate solution of the Kit was added, the mixture was incubated at room temperature for an hour, and time-resolved fluorescence was measured using RUBYstar (BMG LABTECH).

T1 sequence (P43220 24-463, species assumed): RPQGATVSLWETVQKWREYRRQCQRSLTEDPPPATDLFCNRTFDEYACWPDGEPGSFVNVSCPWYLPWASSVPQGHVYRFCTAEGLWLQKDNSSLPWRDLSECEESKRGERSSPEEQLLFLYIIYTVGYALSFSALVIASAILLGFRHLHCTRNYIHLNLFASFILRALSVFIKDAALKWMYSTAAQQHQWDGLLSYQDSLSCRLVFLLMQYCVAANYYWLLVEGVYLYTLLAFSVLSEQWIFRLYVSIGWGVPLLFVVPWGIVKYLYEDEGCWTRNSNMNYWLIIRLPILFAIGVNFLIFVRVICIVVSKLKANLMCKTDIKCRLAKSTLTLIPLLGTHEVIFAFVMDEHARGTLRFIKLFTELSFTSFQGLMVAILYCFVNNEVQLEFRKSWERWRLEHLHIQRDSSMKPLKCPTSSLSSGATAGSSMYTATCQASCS

As for `CC[C@H](C)[C@H](NC(=O)[C@H](Cc1ccccc1)NC(=O)[C@H](CCC(=O)O)NC(=O)[C@H](CCCCN)NC(=O)[C@H](C)NC(=O)[C@H](C)NC(=O)[C@H](CCC(N)=O)NC(=O)CNC(=O)[C@H](CCC(=O)O)NC(=O)[C@H](CC(C)C)NC(=O)[C@H](Cc1ccc(O)cc1)NC(=O)[C@H](CO)NC(=O)[C@H](CO)NC(=O)[C@@H](NC(=O)[C@H](CC(=O)O)NC(=O)[C@H](CO)NC(=O)[C@@H](NC(=O)[C@H](Cc1ccccc1)NC(=O)[C@@H](NC(=O)CNC(=O)[C@H](CCC(=O)O)NC(=O)[C@H](C)NC(=O)[C@@H](N)Cc1c[nH]cn1)[C@@H](C)O)[C@@H](C)O)C(C)C)C(=O)N[C@@H](C)C(=O)N[C@@H](Cc1c[nH]c2ccccc12)C(=O)N[C@@H](CC(C)C)C(=O)N[C@H](C(=O)N[C@@H](CC(N)=O)C(=O)NCC(=O)N[C@@H](CCCNC(=N)N)C(N)=O)C(C)C` [GL34N], inhibition against GLP-1 receptor [1] was half-maximal at 1 nM (IC50). Also, a half-maximal response at GLP-1 receptor [2] (EC50) required 0.11 nM.
